Measurements taken from the NIST ThermoML archive (doi:10.1016/j.tca.2016.04.013).

What was measured:
[1] = 101.33 kPa, Crystal, relaxation calorimetry
[2] = molar heat capacity at constant pressure; settings: 101.33 kPa, Crystal, relaxation calorimetry

Oc1ncc(Cl)c(O)n1 [5-chloro-2,4-pyrimidinedione]
Settings | molar entropy, [1] [J/K/mol] | molar heat capacity at constant pressure, [2] [J/K/mol]
0.5 K | 0.000378 | 0.000485
1 K | 0.00108 | 0.00194
2 K | 0.00473 | 0.0116
2.04 K | – | 0.0119
2.26 K | – | 0.0165
2.51 K | – | 0.0224
2.79 K | – | 0.0297
3 K | 0.0135 | 0.0367
3.1 K | – | 0.0407
3.44 K | – | 0.0549
3.82 K | – | 0.0739
4 K | 0.0301 | 0.085
4.24 K | – | 0.101
4.71 K | – | 0.138
5 K | 0.0569 | 0.164
5.24 K | – | 0.188
5.81 K | – | 0.257
6 K | 0.0966 | 0.282
6.44 K | – | 0.35
7 K | 0.152 | 0.446
7.17 K | – | 0.479
7.91 K | – | 0.649
8 K | 0.225 | 0.665
8.78 K | – | 0.878
9 K | 0.319 | 0.945
9.74 K | – | 1.19
10 K | 0.435 | 1.28
10.81 K | – | 1.59
11.99 K | – | 2.14
13.31 K | – | 2.79
14.74 K | – | 3.64
15 K | 1.39 | 3.81
16.35 K | – | 4.68
18.13 K | – | 6.06
20 K | 2.96 | 7.44
20.12 K | – | 7.49
22.32 K | – | 9.36
24.77 K | – | 11.49
25 K | 5.07 | 11.69
27.49 K | – | 13.93
30 K | 7.59 | 16.14
30.5 K | – | 16.6
33.86 K | – | 19.52
35 K | 10.42 | 20.57
37.57 K | – | 22.81
40 K | 13.44 | 24.87
41.69 K | – | 26.3
45 K | 16.61 | 28.97
46.26 K | – | 29.88
50 K | 19.87 | 32.81
51.34 K | – | 34.08
56.96 K | – | 37.64
60 K | 26.48 | 39.81
63.23 K | – | 41.77
70 K | 33.09 | 45.98
70.19 K | – | 45.99
77.89 K | – | 50.5
80 K | 39.6 | 51.52
86.44 K | – | 54.98
90 K | 45.96 | 56.6
95.96 K | – | 59.39
100 K | 52.17 | 61.33
106.02 K | – | 64.02
110 K | 58.23 | 65.83
116.12 K | – | 68.52
120 K | 64.15 | 70.16
126.18 K | – | 72.83
130 K | 69.93 | 74.35
136.3 K | – | 76.98
140 K | 75.59 | 78.45
146.41 K | – | 80.91
150 K | 81.14 | 82.47
156.52 K | – | 84.91
160 K | 86.59 | 86.42
166.6 K | – | 89.11
170 K | 91.94 | 90.33
176.69 K | – | 92.91
180 K | 97.22 | 94.19
186.77 K | – | 96.98
190 K | 102.41 | 98.02
196.85 K | – | 100.43
200 K | 107.53 | 101.81
206.94 K | – | 104.46
210 K | 112.59 | 105.58
217.03 K | – | 107.97
220 K | 117.59 | 109.32
227.26 K | – | 112.17
230 K | 122.53 | 113.04
234.67 K | – | 114.85
240 K | 127.42 | 116.74
244.74 K | – | 118.78
250 K | 132.26 | 120.42
254.84 K | – | 122.35
260 K | 137.06 | 124.08
264.91 K | – | 125.73
270 K | 141.81 | 127.73
273.15 K | 143.3 | 128.88
275 K | – | 129.5
280 K | 146.52 | 131.37
285.08 K | – | 132.72
290 K | 151.19 | 135
295.37 K | – | 136.73
298.15 K | 154.97 | 137.95
300 K | 155.83 | 138.62
302.71 K | – | 140.1

O=c1cc(Cl)[nH]c(=O)[nH]1 [6-chlorouracil]
Settings | molar entropy, [1] [J/K/mol] | molar heat capacity at constant pressure, [2] [J/K/mol]
0.5 K | 0.00109 | 0.00126
1 K | 0.00269 | 0.00405
1.93 K | – | 0.0182
2 K | 0.00944 | 0.0203
2.15 K | – | 0.0242
2.38 K | – | 0.0322
2.65 K | – | 0.043
2.95 K | – | 0.0584
3 K | 0.0242 | 0.0602
3.27 K | – | 0.0782
3.63 K | – | 0.103
4 K | 0.0508 | 0.135
4.04 K | – | 0.139
4.48 K | – | 0.186
4.98 K | – | 0.247
5 K | 0.0926 | 0.252
5.52 K | – | 0.332
6 K | 0.152 | 0.415
6.12 K | – | 0.436
6.79 K | – | 0.58
7 K | 0.232 | 0.631
7.53 K | – | 0.771
8 K | 0.333 | 0.908
8.35 K | – | 1.02
9 K | 0.459 | 1.25
9.26 K | – | 1.35
10 K | 0.612 | 1.66
10.25 K | – | 1.77
11.34 K | – | 2.31
12.58 K | – | 3.02
13.97 K | – | 3.91
15 K | 1.8 | 4.63
15.49 K | – | 4.99
17.19 K | – | 6.32
19.09 K | – | 7.91
20 K | 3.67 | 8.68
21.19 K | – | 9.7
23.51 K | – | 11.78
25 K | 6.08 | 13.17
26.09 K | – | 14.1
28.91 K | – | 16.74
30 K | 8.88 | 17.67
32.12 K | – | 19.59
35 K | 11.94 | 22.04
35.65 K | – | 22.58
39.54 K | – | 25.93
40 K | 15.15 | 26.22
43.88 K | – | 29.29
45 K | 18.47 | 30.18
48.68 K | – | 32.81
50 K | 21.85 | 33.87
54.02 K | – | 36.6
59.94 K | – | 40.61
60 K | 28.63 | 40.68
66.52 K | – | 44.81
70 K | 35.37 | 46.77
73.83 K | – | 48.95
80 K | 41.97 | 52.2
81.96 K | – | 53.22
90 K | 48.41 | 57.15
90.91 K | – | 57.53
100 K | 54.67 | 61.75
100.89 K | – | 61.78
110 K | 60.76 | 66.1
111.04 K | – | 66.68
120 K | 66.7 | 70.26
121.13 K | – | 70.82
130 K | 72.48 | 74.29
131.15 K | – | 74.92
140 K | 78.13 | 78.22
141.29 K | – | 78.76
150 K | 83.66 | 82.08
151.38 K | – | 82.6
160 K | 89.08 | 85.89
161.47 K | – | 86.43
170 K | 94.4 | 89.66
171.56 K | – | 90.19
180 K | 99.63 | 93.41
181.61 K | – | 94.08
190 K | 104.78 | 97.14
191.69 K | – | 97.83
200 K | 109.85 | 100.85
201.81 K | – | 101.23
210 K | 114.86 | 104.56
211.89 K | – | 105.16
220 K | 119.81 | 108.26
222 K | – | 108.99
230 K | 124.71 | 111.96
232.08 K | – | 112.88
240 K | 129.55 | 115.64
242.1 K | – | 116.48
250 K | 134.35 | 119.33
252.19 K | – | 120.07
260 K | 139.1 | 123
262.33 K | – | 123.73
270 K | 143.81 | 126.67
272.41 K | – | 127.71
273.15 K | 145.28 | 127.82
280 K | 148.48 | 130.33
282.41 K | – | 131.41
290 K | 153.12 | 133.98
292.56 K | – | 134.98
298.15 K | 156.87 | 136.94
300 K | 157.72 | 137.62
302.57 K | – | 138.3
